Test results reported in patent US20070092577A1, “Dietary calcium for reducing the production of reactive oxygen species” (University of Tennessee Research Foundation, priority 2005, published 2007).

Columns and labels:
Type in all cases: cell-based
[1] = tested on: adiponectin; assay: Adiponectin expression in differentiated Zen-bio human adipocytes; details: 10 nmol/L 1α, 25-(OH)2-D3 or 10 μmol/L nifedipine, 48 h; p=0.377
Protocol: (§1) Human pre-adipocytes used in this study were supplied by Zen-Bio (Research Triangle, N.C.). […] The cells are isolated from the stromal vascular fraction of human subcutaneous adipose tissue and differentiated in vitro as follows: […] Preadipocytes were maintained in this differentiation medium for 3 days and subsequently cultured in adipocyte medium in which BRL49653 and MIX were omitted. Cultures were re-fed every 2-3 days till fully differentiated. Cells were incubated in serum free medium overnight before chemical treatment. Chemicals were freshly diluted in adipocyte medium before treatment. […] Cell viability was measured via trypan blue exclusion. Adipocyte and muscle 18s, TNFα, IL-6, IL-8, IL-15 and adiponectin were quantitatively measured using a smart cycler real-time PCR system (Cepheid, Sunnyvale, Calif.) with a TaqMan 1000 Core Reagent Kit (Applied Biosystems, Branchburg, N.J.). […] Reactions of quantitative RT-PCR for standards and unknown samples were also performed according to the instructions of Smart Cycler System (Cepheid, Sunnyvale, Calif.) and TaqMan Real Time PCR Core Kit (Applied Biosystems, Branchburg, N.J.). The mRNA quantitation for each sample was further normalized using the corresponding 18s quantitation.

[2] = tested on: IL-15; assay: IL-15 expression in differentiated Zen-bio human adipocytes; details: 10 nmol/L 1α, 25-(OH)2-D3 or 10 μmol/L nifedipine, 48 h; p=0.473
Protocol: as §1

[3] = tested on: IL-6; assay: IL-6 expression in differentiated Zen-bio human adipocytes; details: 10 nmol/L, 48 h; p=0.004
Protocol: as §1

Which results are given for `C=C1/C(=C\C=C2/CCC[C@]3(C)[C@@H]([C@H](C)CCCC(C)(C)O)CC[C@@H]23)C[C@@H](O)C[C@@H]1O` [calcitriol, 1, 25-Dihydroxyvitamin D]?
effect on adiponectin expression [1]: no effect; effect on IL-15 expression [2]: no effect; stimulation of IL-6 expression [3]: 53%
